According to patent US12594267B2, “Capsid inhibitors for the treatment of HIV” (Gilead Sciences, Inc., priority 2018, dated 2026):
Read-outs that look alike come from different tables or passages of the source.

Experiment: PK after subcutaneous administration of solutions in dogs
Format: in vivo, Beagle dog
Conditions: male, beagle, dog, plasma, sc, 12 mg/kg; for concentration at 336 h / concentration at 504 h / concentration at 672 h / concentration at 840 h / concentration at 1008 h / concentration at 1344 h / concentration at 1680 h / concentration at 1 h / concentration at 3 h / concentration at 8 h / concentration at 24 h / concentration at 48 h / concentration at 72 h / concentration at 96 h / concentration at 168 h: SC 12 mg/kg, 400 mg/mL in 15% water/85% PEG 300; for AUC(0-t): male beagle dog, single SC 12 mg/kg, 400 mg/mL in 85% PEG300 and 15% water, mean ± SD
Experimental: Formulations containing the compound of Formula (Ia) were prepared as aqueous solutions or oral formulations and administered subcutaneously to rats, dogs, cynomolgus monkey, and/or rhesus monkey.
A solution of the compound of Formula (Ia) in 10% ethanol, 13% water, and 77% PEG 200 (400 mg/mL) was prepared. The solution was administered subcutaneously to dogs at a dose of 12 mg/kg and rats at a dose of 50 mg/kg and the pharmacokinetic (PK) profile was determined. […] In both species, plasma concentrations of the compound of Formula (Ia) were maintained above the target trough concentration of 20 nM (corresponding to an IQ of 5) for at least 84 days (12 weeks).
A solution of the compound of Formula (Ia) in 15% water and 85.0 PEG 300 (400 mg/mL) was prepared. The solution was administered subcutaneously to male beagle dogs at a dose level of 12 mg/kg and dose volume of […] and the pharmacokinetic (PK) profile was determined.
A solution of the compound of Formula (a) sodium salt in water and 300 (300 mg/mL) was prepared that contained 22.6% water/50% PEG 300/1.1% NaOH/26.3% Formula (Ia). The solution was administered subcutaneously to male beagle dogs at a dose level of 12 mg/kg and dose volume of […] and the pharmacokinetic (PK) profile was determined.
A 300 mg/ml solution of a compound of Formula (Ia) having 9.8 w/w % water, 65.0 w/w % PEG 300, and 25.2 w/w % of the compound of Formula (Ia) was prepared. The solution was administered subcutaneously to rats at a dose of 50 mg/kg and to dogs at a dose of 12 mg/kg and the pharmacokinetic (PK) profile was determined. […] In the rat, plasma concentrations of the compound of Formula (Ia) were maintained above the target trough concentration of 20 nM for at least 168 days (24 weeks). In the dog, plasma concentrations of the compound of Formula (Ia) were maintained above the target trough concentration of 20 nM for at least 84 days (12 weeks).
(§1) A 150 mg/ml solution of a compound of Formula (Ia) having 27.92 w/w % water, 58.04 w/w % PEG 300, 13.47 w/w % of a compound of Formula (Ia), and 1.1 w/w % NaOH was prepared. The solution was administered subcutaneously to rats at a dose of 50 mg/kg and to dogs at a dose of 12 mg/kg and the pharmacokinetic (PK) profile was determined. […] In the rat, plasma concentrations of the compound of Formula (Ia) were maintained above the target trough concentration of 20 nM for at least 126 days (18 weeks). In the dog, plasma concentrations of the compound of Formula (Ia) were maintained above the target trough concentration of 20 nM for at least 56 days (8 weeks).
as §1, with “300” for “150”, “23.2” for “27.92”, “50.0” for “58.04”, “25.7” for “13.47”
A 50 mg/ml solution of a compound of Formula (Ia) having 30.07 w/w % water, 64.40 w/w % PEG 300, 4.68 w/w % of a sodium salt of the compound of Formula (Ia), and 0.85 w/w % poloxamer 188 was prepared. The solution was administered subcutaneously to rats at a dose of 50 mg/kg and to dogs at a dose of 6 mg/kg and the pharmacokinetic (PK) profile was determined. […] In the rat, plasma concentrations of the compound of Formula (Ia) were maintained above the target trough concentration of 20 nM for at least 28 days (4 weeks). In the dog, plasma concentrations of the compound of Formula (Ia) were maintained above the target trough concentration of 20 nM for at least 14 days (2 weeks). […]

Question: With `CC(C)(C#Cc1ccc(-c2ccc(Cl)c3c(NS(C)(=O)=O)nn(CC(F)(F)F)c23)c([C@H](Cc2cc(F)cc(F)c2)NC(=O)Cn2nc(C(F)(F)F)c3c2C(F)(F)[C@@H]2C[C@H]32)n1)S(C)(=O)=O` [Formula (Ia), N—((S)-1-(3-(4-chloro-3-(methylsulfonamido)-1-(2,2,2-trifluoroethyl)-1H-indazol-7-yl)-6-(3-methyl-3-(methylsulfonyl)but-1-yn-1-yl)pyridin-2-yl)-2-(3,5-difluorophenyl)ethyl)-2-((3bS,4aR)-5,5-difluoro-3-(trifluoromethyl)-3b,4,4a,5-tetrahydro-1H-cyclopropa[3,4]cyclopenta[1,2-c]pyrazol-1-yl)acetamide] as the compound, how does the concentration at 336 h (dog #1) read?
Answer: 135 nM

Question: What about the concentration at 504 h (dog #1) of the same compound?
Answer: 172 nM

Question: And the concentration at 672 h (dog #1)?
Answer: 93.1 nM

Question: And the concentration at 840 h (dog #1)?
Answer: 150 nM

Question: And the concentration at 1008 h (dog #1)?
Answer: 80.2 nM

Question: What about the concentration at 1344 h (dog #1) of the same compound?
Answer: 42.7 nM

Question: What about the concentration at 1680 h (dog #1) of the same compound?
Answer: 69.5 nM

Question: What about the concentration at 1 h (dog #2) of the same compound?
Answer: 1.2 nM

Question: What about the concentration at 3 h (dog #2) of the same compound?
Answer: 2.6 nM

Question: And the concentration at 8 h (dog #2)?
Answer: 15.5 nM

Question: What about the concentration at 24 h (dog #2) of the same compound?
Answer: 27.8 nM

Question: And the concentration at 48 h (dog #2)?
Answer: 60.6 nM

Question: And the concentration at 72 h (dog #2)?
Answer: 37.8 nM

Question: And the concentration at 96 h (dog #2)?
Answer: 28.8 nM

Question: And the concentration at 168 h (dog #2)?
Answer: 43.1 nM

Question: What about the concentration at 336 h (dog #2) of the same compound?
Answer: 64.7 nM

Question: And the concentration at 504 h (dog #2)?
Answer: 114 nM

Question: What about the concentration at 672 h (dog #2) of the same compound?
Answer: 81.5 nM

Question: What about the concentration at 840 h (dog #2) of the same compound?
Answer: 110 nM

Question: What about the concentration at 1008 h (dog #2) of the same compound?
Answer: 70.7 nM

Question: What about the concentration at 1344 h (dog #2) of the same compound?
Answer: 41.2 nM

Question: And the concentration at 1680 h (dog #2)?
Answer: 42.2 nM

Question: What about the concentration at 1 h (dog #3) of the same compound?
Answer: 1.2 nM

Question: And the concentration at 3 h (dog #3)?
Answer: 2.3 nM

Question: What about the concentration at 8 h (dog #3) of the same compound?
Answer: 9.2 nM

Question: And the concentration at 24 h (dog #3)?
Answer: 16.8 nM

Question: What about the concentration at 48 h (dog #3) of the same compound?
Answer: 13.2 nM

Question: And the concentration at 72 h (dog #3)?
Answer: 13.2 nM

Question: And the concentration at 96 h (dog #3)?
Answer: 10.4 nM

Question: And the concentration at 168 h (dog #3)?
Answer: 30.8 nM

Question: And the concentration at 336 h (dog #3)?
Answer: 53 nM

Question: What about the concentration at 504 h (dog #3) of the same compound?
Answer: 82.9 nM

Question: What about the concentration at 672 h (dog #3) of the same compound?
Answer: 56.9 nM

Question: And the concentration at 840 h (dog #3)?
Answer: 107 nM

Question: What about the concentration at 1008 h (dog #3) of the same compound?
Answer: 54.1 nM

Question: And the concentration at 1344 h (dog #3)?
Answer: 30.2 nM

Question: What about the concentration at 1680 h (dog #3) of the same compound?
Answer: 28.5 nM

Question: What about the concentration at 3 h (dog mean, n=3) of the same compound?
Answer: 2 nM

Question: What about the concentration at 8 h (dog mean, n=3) of the same compound?
Answer: 11.8 nM

Question: And the concentration at 24 h (dog mean, n=3)?
Answer: 21.5 nM

Question: And the concentration at 48 h (dog mean, n=3)?
Answer: 42.8 nM

Question: And the concentration at 72 h (dog mean, n=3)?
Answer: 37.9 nM

Question: What about the concentration at 96 h (dog mean, n=3) of the same compound?
Answer: 32.7 nM

Question: What about the concentration at 168 h (dog mean, n=3) of the same compound?
Answer: 48.6 nM

Question: What about the concentration at 336 h (dog mean, n=3) of the same compound?
Answer: 84.2 nM

Question: What about the concentration at 504 h (dog mean, n=3) of the same compound?
Answer: 123 nM

Question: What about the concentration at 672 h (dog mean, n=3) of the same compound?
Answer: 77.2 nM

Question: What about the concentration at 840 h (dog mean, n=3) of the same compound?
Answer: 122 nM

Question: And the concentration at 1008 h (dog mean, n=3)?
Answer: 68.3 nM

Question: And the concentration at 1344 h (dog mean, n=3)?
Answer: 38 nM

Question: And the concentration at 1680 h (dog mean, n=3)?
Answer: 46.7 nM

Question: And the concentration at 1 h (dog mean)?
Answer: 1.2 nM

Question: And the AUC(0-t) (n=3, read-out: AUC0-24h)?
Answer: 0.304 ± 0.082 µM·h

Question: And the AUC(0-t) (n=3, read-out: AUC0-48h)?
Answer: 1.08 ± 0.44 µM·h

Question: And the AUC(0-t) (n=3, read-out: AUC0-72h)?
Answer: 2.04 ± 0.98 µM·h

Question: And the AUC(0-t) (n=3, read-out: AUC0-168h)?
Answer: 5.82 ± 3.04 µM·h

Question: What about the AUC(0-t) (n=3, read-out: AUC0-672h) of the same compound?
Answer: 51.2 ± 21 µM·h

Question: What about the AUC(0-t) (n=3, read-out: AUC0-1344h) of the same compound?
Answer: 102 ± 30 µM·h
